From US20250304643A1, “PEPTIDE DUAL AGONISTS OF GIPR AND GLP2R” (BAINAN BIOTECH APS, priority 2021, published 2025)
Where two headings read alike, the source gives them in different places.

Assays:
Format in all cases: cell-based
human GLP-2R = target: T1, human GLP-2R (Homo sapiens, UniProt O95838); assay: HitHunter cAMP assay in transiently transfected COS-7 cells, human GLP-2R; settings: Emax normalized to highest concentration of endogenous ligand; Table 2;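 further: cells kept 30 min at 37 °C in buffer with 1 mM IBMX, then given ligand for another 30 min at 37 °C before cAMP readout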
T1 construct: host or cells: COS-7
T1 sequence (O95838 1-553): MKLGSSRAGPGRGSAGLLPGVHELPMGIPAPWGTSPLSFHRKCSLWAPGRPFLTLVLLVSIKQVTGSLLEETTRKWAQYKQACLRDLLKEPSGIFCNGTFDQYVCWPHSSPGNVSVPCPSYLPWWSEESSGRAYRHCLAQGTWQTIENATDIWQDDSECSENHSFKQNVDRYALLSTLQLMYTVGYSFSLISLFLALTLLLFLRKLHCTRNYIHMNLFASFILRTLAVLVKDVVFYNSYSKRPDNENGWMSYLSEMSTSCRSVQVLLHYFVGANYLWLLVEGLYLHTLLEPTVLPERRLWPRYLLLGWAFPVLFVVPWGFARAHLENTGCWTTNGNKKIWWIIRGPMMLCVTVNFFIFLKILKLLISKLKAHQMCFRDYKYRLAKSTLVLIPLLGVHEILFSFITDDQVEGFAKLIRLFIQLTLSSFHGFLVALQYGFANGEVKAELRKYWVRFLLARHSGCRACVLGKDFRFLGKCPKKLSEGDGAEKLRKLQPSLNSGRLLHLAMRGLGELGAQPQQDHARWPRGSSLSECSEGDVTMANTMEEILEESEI
Method: COS-7 cells were cultured at 10% CO2 and 37° C. in Dulbecco's Modified Eagle Medium (DMEM) 1885 supplemented with 10% fetal bovine serum (FBS), 2 mM glutamine, 180 units/ml penicillin, and 45 g/ml streptomycin.
The next day the assay was initiated by washing with HEPES buffered saline (HBS) and followed by an incubation step with assay buffer (HBS added 1 mM isobutyl-1-methylxanthine (IBMX)) for 30 min at 37° C. The ligands were then added and incubated for an additional 30 min at 37° C. After ligand incubation, the HitHunter® CAMP assay (Eurofins DiscoverX, Fremont, 150 USA) was carried out according to the manufacturer's instructions. Luminescence was measured by PerkinElmer™ EnVision 2014 Multilabel Reader (PerkinElmer, Waltham, MA). The potencies (EC50 values) were determined by nonlinear regression using GraphPad Prism 9 (San Diego, California, USA). Sigmoid curves were fitted logistically. The efficacies (Emax values) were determined by normalization to the highest concentration applied of the endogenous ligand for each receptor.

human GLP-1R = target: T2, human GLP-1R (Homo sapiens, UniProt P43220); assay: HitHunter cAMP assay in transiently transfected COS-7 cells, human GLP-1R; settings: Emax normalized to highest concentration of endogenous ligand; Table 3
T2 construct: host or cells: COS-7
T2 sequence (P43220 24-463): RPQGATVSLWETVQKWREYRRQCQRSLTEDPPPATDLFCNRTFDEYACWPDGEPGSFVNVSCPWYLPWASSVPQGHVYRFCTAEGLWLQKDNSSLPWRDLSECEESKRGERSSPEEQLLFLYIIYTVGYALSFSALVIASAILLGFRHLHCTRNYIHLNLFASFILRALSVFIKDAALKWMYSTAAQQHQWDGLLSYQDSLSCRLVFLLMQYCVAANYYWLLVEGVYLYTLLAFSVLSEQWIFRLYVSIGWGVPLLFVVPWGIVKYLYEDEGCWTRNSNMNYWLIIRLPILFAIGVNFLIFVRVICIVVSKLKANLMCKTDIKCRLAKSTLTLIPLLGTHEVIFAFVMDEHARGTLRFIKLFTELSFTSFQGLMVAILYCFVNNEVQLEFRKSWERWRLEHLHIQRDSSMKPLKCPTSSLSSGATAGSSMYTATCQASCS
Method: (§1) The next day the assay was initiated by washing with HEPES buffered saline (HBS) and followed by an incubation step with assay buffer (HBS added 1 mM isobutyl-1-methylxanthine (IBMX)) for 30 min at 37° C. The ligands were then added and incubated for an additional 30 min at 37° C. After ligand incubation, the HitHunter® CAMP assay (Eurofins DiscoverX, Fremont, […] USA) was carried out according to the manufacturer's instructions. Luminescence was measured by PerkinElmer™ EnVision 2014 Multilabel Reader (PerkinElmer, Waltham, MA). The potencies (EC50 values) were determined by nonlinear regression using GraphPad Prism 9 (San Diego, California, USA). Sigmoid curves were fitted logistically. The efficacies (Emax values) were determined by normalization to the highest concentration applied of the endogenous ligand for each receptor.

rat GIPR = target: T3, rat GIPR (Rattus norvegicus, UniProt P43219); assay: HitHunter cAMP assay in transiently transfected COS-7 cells, rat GIPR; settings: Emax normalized to highest concentration of endogenous ligand
T3 construct: expressed in transfected cells; host or cells: COS-7
T3 sequence (P43219 19-455): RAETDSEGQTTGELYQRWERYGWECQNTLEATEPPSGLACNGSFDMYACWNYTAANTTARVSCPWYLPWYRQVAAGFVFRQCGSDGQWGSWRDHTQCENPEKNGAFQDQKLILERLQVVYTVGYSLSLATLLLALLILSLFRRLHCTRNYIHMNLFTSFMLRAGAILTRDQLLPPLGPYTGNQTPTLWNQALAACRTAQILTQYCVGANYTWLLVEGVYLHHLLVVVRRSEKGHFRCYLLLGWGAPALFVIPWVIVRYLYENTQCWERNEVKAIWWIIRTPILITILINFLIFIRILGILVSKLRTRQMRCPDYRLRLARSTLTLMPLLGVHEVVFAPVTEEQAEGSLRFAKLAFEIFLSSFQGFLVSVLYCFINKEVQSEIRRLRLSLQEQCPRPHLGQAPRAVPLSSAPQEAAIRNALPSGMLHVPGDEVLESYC
Method: as §1

rat GLP-2R = target: T4, rat GLP-2R (Rattus norvegicus, UniProt Q9Z0W0); assay: HitHunter cAMP assay in transiently transfected COS-7 cells, rat GLP-2R; settings: Emax normalized to highest concentration of endogenous ligand
T4 construct: expressed in transfected cells; host or cells: COS-7
T4 sequence (Q9Z0W0 1-550): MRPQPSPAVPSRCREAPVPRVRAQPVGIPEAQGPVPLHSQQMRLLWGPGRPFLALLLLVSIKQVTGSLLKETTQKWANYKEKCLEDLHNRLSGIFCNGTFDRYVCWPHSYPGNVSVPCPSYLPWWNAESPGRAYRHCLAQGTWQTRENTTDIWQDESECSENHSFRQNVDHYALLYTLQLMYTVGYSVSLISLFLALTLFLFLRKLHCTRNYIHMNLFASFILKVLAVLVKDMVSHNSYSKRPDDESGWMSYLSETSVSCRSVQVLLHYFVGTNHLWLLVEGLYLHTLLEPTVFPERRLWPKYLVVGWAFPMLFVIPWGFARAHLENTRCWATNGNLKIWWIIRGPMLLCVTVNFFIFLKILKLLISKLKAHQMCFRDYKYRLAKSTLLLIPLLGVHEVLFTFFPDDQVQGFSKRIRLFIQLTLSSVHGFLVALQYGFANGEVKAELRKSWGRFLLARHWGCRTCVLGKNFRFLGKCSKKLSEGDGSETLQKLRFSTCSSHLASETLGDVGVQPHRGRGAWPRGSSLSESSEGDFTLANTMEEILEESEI
Method: as §1

human GIPR [1] = target: T5, human GIPR (Homo sapiens, UniProt P48546); set-up: host or cells: COS-7; settings: Emax normalized to highest concentration of endogenous ligand; Table 2
T5 sequence (P48546 22-466): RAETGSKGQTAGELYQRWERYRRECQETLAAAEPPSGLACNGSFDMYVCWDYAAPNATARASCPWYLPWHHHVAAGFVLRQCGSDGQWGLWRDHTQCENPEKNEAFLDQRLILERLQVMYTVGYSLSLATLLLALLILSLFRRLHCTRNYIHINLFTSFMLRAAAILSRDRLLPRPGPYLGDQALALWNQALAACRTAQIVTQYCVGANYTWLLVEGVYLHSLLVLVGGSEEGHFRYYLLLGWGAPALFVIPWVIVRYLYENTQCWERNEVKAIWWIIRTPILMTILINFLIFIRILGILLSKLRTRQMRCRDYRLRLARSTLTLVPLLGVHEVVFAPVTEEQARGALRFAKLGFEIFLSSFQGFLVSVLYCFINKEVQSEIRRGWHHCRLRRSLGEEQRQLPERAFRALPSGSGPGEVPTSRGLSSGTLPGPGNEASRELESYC

human SNAP-GIPR = target: T6, human SNAP-GIPR (Homo sapiens, UniProt P48546); set-up: AUC ± SD: unit not given beside the values; settings: for Emax ± SD (%): NA = no activity
T6 construct: host or cells: HEK293A
T6 sequence (P48546 22-466): T5 sequence (P48546 22-466)

human GIPR [2] = target: T5, human GIPR; set-up: host or cells: HEK293; settings: beta-arrestin 2 recruitment; for AUC ± SD: AUC of sigmoid curves up to 100 nM; for Emax ± SD (%): normalized to highest concentration of GIP, NA = no activity
Method: HEK293 cells were cultured at 10% CO2 and 37° C. in DMEM-GlutaMAX™-I supplemented with 10% FBS, 180 units/mL penicillin and 45 g/mL streptomycin. These cells were transfected using PEI for the beta-arrestin recruitment assay as described in detail in (van der Velden et al., 2021).
HEK293 cells were transiently transfected with human GIPR, the donor Rluc8-Arrestin-3-Sp1 (beta-arrestin 2 recruitment), the acceptor mem-linker-citrine-SH3, and the GPCR kinase 2 (GRK2). Two days following transfection, the cells were washed with PBS and resuspended in PBS with 5 mM glucose. Then, 85 μL of the cell suspension solution was added to each well of a white 96-well plate followed by the addition of PBS with 5 μM coelenterazine-h. Following 10 min incubation, increasing concentrations of ligands were added and incubated for an additional 30 min. Luminescence was measured with the Berthold Technologies Mithras Multilabel Reader (Rluc8 at 485±40 nm and YFP at 530±25 nm). The potencies (EC50 values) were determined by nonlinear regression using GraphPad Prism 9 (San Diego, California, USA). Sigmoid curves were fitted logistically. The efficacies (Emax values) were determined by normalization to the highest concentration applied of the endogenous ligand (GIP) for the GIPR.

macaque GIPR = assay: HitHunter cAMP assay in transiently transfected COS-7 cells, macaque GIPR
Method: as §1

Substance	Efficacy GLP-2R (human GLP-2R)	Efficacy GLP-1R (human GLP-1R)	rGIPR Efficacy (%) (rat GIPR)	rGLP-2R Efficacy (%) (rat GLP-2R)	Efficacy GIPR (human GIPR [1])	AUC ± SD (human SNAP-GIPR; GIPR internalization, AUC of sigmoid curves up to 1 μM)	Emax ± SD (%) (human SNAP-GIPR; GIPR internalization)	AUC ± SD (human SNAP-GIPR)	AUC ± SD (human GIPR [2])	Emax ± SD (%) (human GIPR [2])	maGIPR Efficacy (%) (macaque GIPR; Emax normalized to highest concentration of the endogenous ligand, COS-7 cells)	maGIPR pEC50 (macaque GIPR; cAMP, transiently transfected COS-7 cells)
(C10)H-Aib-DGTFISDYST-Aib-LDNLAARDFINWLIQTKITK-OH [Compound no. 44]	100	19	87.3%	90.0%	110							
(C16)HADGTFISDYSTAibLDNLAARDFINWLIQTKITKNDWKHNITQ [Compound no. 53]	79		77.3%	18.0%	90							
Ac-H-Aib-DGTFISDYS-K(γGlu-C16)-Aib-LDNLAARDFINWLIQTKITK-OH [Compound no. 36]	76	19			92	47 ± 1	58 ± 8%					
H-Aib-DG-K(γGlu-C10)-FISDYST-Aib-LDNLAARDFINWLIQTKITK-OH [Compound no. 24]	90		96.3%	76.3%	113		68 ± 3%	113 ± 4	117 ± 31	57 ± 16%		
H-Aib-DG-K(γGlu-C16 diacid)-FISDYST-Aib-LDNLAARDFINWLIQTKITK-OH [Compound no. 25]	88		71.7%	65.0%	93		46 ± 2%	57 ± 2	42 ± 15	23 ± 7%		
H-Aib-DG-K(γGlu-C16)-FISDYSTILDNLAARDFINWLIQTKITK-OH [Compound no. 9]	91	32	74.3%	82.0%	110							
H-Aib-DGTFISDY-K(yglu-C10)-T-Aib-LDNLAARDFINWLIQTKITGNDWKHNITQ-OH [Compound no. 54]	87	8	110.3%	108.0%	86						71.8%	7.7
H-Aib-DGTFISDY-K(γGlu-C10)-TILDKLAARDFIEWLIATKITK-OH [Compound no. 31]	90	6	85.0%	86.3%	89			0	0			
H-Aib-DGTFISDY-K(γGlu-C16)-T-Aib-LDALAARDFIEWLIQTKITK-OH [Compound no. 33]	97		98.7%	96.3%	101		25 ± 3%	27 ± 2	23 ± 12	9 ± 5%		
H-Aib-DGTFISDY-K(γGlu-C16)-TAib-LDNLAARDFINWLIQTKITKNDWKHNITQ-OH [Compound no. 37]	97		91.0%	83.3%			24 ± 5%	15 ± 4	0	15 ± 41%		
H-Aib-DGTFISDY-K(γGlu-C16)-TILDNLAARDFINWLIQTKGKKNDWKHNITQ-NH2 [Compound no. 14]	114	0	98.3%	93.3%	101							
H-Aib-DGTFISDYS-K(γGlu-C16)-Aib-LDNLAARDFINWLIQTKITK-OH [Compound no. 35]	88	31	86.3%	87.3%	106				58 ± 14	34 ± 7%		
H-Aib-DGTFISDYSTIL-K(γGlu-C16)-NLAARDFINWLIQTKITK-OH [Compound no. 13]	95	4	69.7%	83.7%	95							
H-Aib-EG-K(γGlu-C16)-FISDYST-Aib-LDNLAARDFINWLIQTKITK-OH [Compound no. 27]	108	0			98							
